This note sets out measurements from ChEMBL document CHEMBL4665667, “Lowering Lipophilicity by Adding Carbon: AzaSpiroHeptanes, a logD Lowering Twist” (ACS Med Chem Lett, 2019).

Data set [1] in a line: Lipophilicity, logD of compound at pH 7.4 by Shake-flask distribution coefficient method. It counts as physicochemical. Particulars: octanol/water.
The nature of data set [2]: Dissociation constant, pKa of compound. It counts as physicochemical.
Data set [3] in a line: Intrinsic clearance in rat hepatocytes assessed per 10^6 cells. It counts as ADME, cell-based, Hepatocyte. The settings on record: read-out: CLH.
A short description of data set [4]: Apparent permeability in human Caco2 cells at 10 uM. The class given is ADME, cell-based. The settings on record: Caco-2. Background: Passage across Caco-2 layers is used to estimate intestinal permeability.
A short description of data set [5]: Intrinsic clearance in human liver microsomes. The class given is ADME, Microsome. The settings on record: read-out: CLH.
Data set [6] can be described thus: Intrinsic clearance in human hepatocytes assessed per 10^6 cells. It counts as ADME, cell-based, Hepatocyte. Particulars: read-out: CLH.
The target of data set [7] is T1, Glucose-dependent insulinotropic receptor (Homo sapiens, UniProt Q8TDV5).
T1 sequence (Q8TDV5 whole entry): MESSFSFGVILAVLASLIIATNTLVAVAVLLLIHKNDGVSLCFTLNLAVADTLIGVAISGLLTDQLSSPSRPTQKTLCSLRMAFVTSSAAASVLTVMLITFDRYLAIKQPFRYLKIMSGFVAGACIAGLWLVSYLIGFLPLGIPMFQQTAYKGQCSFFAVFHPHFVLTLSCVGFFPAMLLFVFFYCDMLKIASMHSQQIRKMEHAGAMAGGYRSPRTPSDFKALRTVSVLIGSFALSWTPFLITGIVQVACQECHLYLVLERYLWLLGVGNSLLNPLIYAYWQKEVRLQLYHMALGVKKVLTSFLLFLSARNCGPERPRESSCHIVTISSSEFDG
Nature of the data set: Agonist activity at human GPR119 expressed in HEK293 cells assessed as increase in cAMP level incubated for 45 mins by cAMP HTRF assay. The class given is functional, cell-based. For orientation: cAMP levels reflect the balance of adenylyl cyclase and phosphodiesterase activity.

Data set [8] is described as follows: Lipophilicity, logD of compound in octanol and buffer in pH 7.4 incubated for 30 mins under shaking condition by LC/UV analysis. The class given is physicochemical.
Data set [9] is described as follows: Apparent permeability across apical to basolateral side in MDCK cells incubated at 10 uM. Particulars: dog. It counts as ADME, cell-based, Canis lupus familiaris.

The structures appear in SMILES notation. Bounds are passed on as bounds.

As a reminder, the logD is the decadic logarithm of the distribution of all forms, ionised or not, between an organic phase and buffer at a given pH. The low end stands for a more hydrophilic compound, the high end for a more lipophilic compound. In general, pKa refers to the pH at which an ionisable group is half protonated. Higher therefore signals a group that holds its proton tightly. What is called Papp is a coefficient for how fast a substance crosses the barrier. Take `c1nc(N[C@H]2CC[C@H](N3CC4(COC4)C3)CC2)c2c(C3CCOCC3)c[nH]c2n1`: the logD in [1] amounted to 0.8. Further, the pKa in data set [2] came out at 8.2. Moreover, the results for the hepatocyte CLint in [3] and in [6] were 8 µL/min/1e6 cells and less than 1 µL/min/1e6 cells, respectively. Further, the apparent permeability coefficient (Papp) at 10 µM in data set [4] is 4.1 ×10⁻⁶ cm/s. Further, the microsomal CLint in data set [5] was less than 3 µL/min/mg.

Usually EC50 stands for the concentration needed to bring the measured effect to its halfway point. As usually defined, the Papp A→B is how fast a substance crosses the layer from the apical side. On to `CC(C)(C)OC(=O)N1CC2(C1)CN(c1ncc(OCc3ccncc3C#N)cn1)C2`, for which the EC50 in [7] came to 16 µM. In addition, the log distribution coefficient (logD) at 0.5 h in data set [8] amounted to 2.5. Besides, the Papp A→B at 10 µM in data set [9] is 17 ×10⁻⁶ cm/s.
